Results taken from the NIST ThermoML archive (doi:10.1016/j.fluid.2011.02.020).
± gives the expanded uncertainty stated by the source.

Assay: mn = molality of the nth substance listed, in mol/kg
Details: 298.15 K, 101 kPa, Liquid, Vibrating tube method

With `CCCCCCC(F)(F)C(F)(F)C(F)(F)C(F)(F)F` [1,1,1,2,2,3,3,4,4-nonafluorodecane] + CCCCCCCC as the molecule, how does the molar volume (m1 = 0.0465) read?
Its molar volume is 0.0002496 ± 3e-06 m3/mol.

What about the molar volume (m1 = 0.0608) of the same molecule?
The molar volume was 0.0002501 ± 3e-06 m3/mol.

What about the molar volume (m1 = 0.0703) of the same molecule?
The molar volume was 0.0002498 ± 3e-06 m3/mol.

What about the molar volume (m1 = 0.1003) of the same molecule?
The molar volume was 0.0002498 ± 3e-06 m3/mol.

And the molar volume (m1 = 0.1403)?
Its molar volume is 0.0002498 ± 3e-06 m3/mol.

And the molar volume (m1 = 0.1663)?
Its molar volume is 0.0002493 ± 3e-06 m3/mol.

And the molar volume (m1 = 0.1689)?
The molar volume was 0.0002492 ± 3e-06 m3/mol.

What about the molar volume (m1 = 0.2127) of the same molecule?
Its molar volume is 0.0002497 ± 3e-06 m3/mol.

For `CCCCCCCCC(F)(F)C(F)(F)C(F)(F)C(F)(F)F` [1,1,1,2,2,3,3,4,4-nonafluorododecane] + CCCCCCCC, which molar volume (m1 = 0.0685) is on record?
Its molar volume is 0.0002816 ± 3e-06 m3/mol.

And the molar volume (m1 = 0.0996)?
Its molar volume is 0.0002815 ± 3e-06 m3/mol.

What about the molar volume (m1 = 0.1061) of the same molecule?
Its molar volume is 0.0002817 ± 3e-06 m3/mol.

What about the molar volume (m1 = 0.1259) of the same molecule?
The molar volume was 0.0002815 ± 3e-06 m3/mol.

And the molar volume (m1 = 0.1271)?
Its molar volume is 0.0002817 ± 3e-06 m3/mol.

What about the molar volume (m1 = 0.1522) of the same molecule?
The molar volume was 0.0002818 ± 3e-06 m3/mol.

And the molar volume (m1 = 0.1885)?
The molar volume was 0.0002815 ± 3e-06 m3/mol.

And the molar volume (m1 = 0.2032)?
The molar volume was 0.0002815 ± 3e-06 m3/mol.

Which molar volume (m1 = 0.0527) does the source give for `CCCCCC(F)(F)C(F)(F)C(F)(F)C(F)(F)F` [1,1,1,2,2,3,3,4,4-nonafluorononane] + CCCCCCCC here?
Its molar volume is 0.0002338 ± 3e-06 m3/mol.

And the molar volume (m1 = 0.0601)?
Its molar volume is 0.0002337 ± 3e-06 m3/mol.

And the molar volume (m1 = 0.0947)?
Its molar volume is 0.0002337 ± 3e-06 m3/mol.

What about the molar volume (m1 = 0.1337) of the same molecule?
The molar volume was 0.0002337 ± 3e-06 m3/mol.

What about the molar volume (m1 = 0.1437) of the same molecule?
The molar volume was 0.0002336 ± 3e-06 m3/mol.

And the molar volume (m1 = 0.1755)?
Its molar volume is 0.0002334 ± 3e-06 m3/mol.

And the molar volume (m1 = 0.1914)?
Its molar volume is 0.0002334 ± 3e-06 m3/mol.

What about the molar volume (m1 = 0.2141) of the same molecule?
The molar volume was 0.0002334 ± 3e-06 m3/mol.

Which molar volume (m1 = 0.0532) does the source give for `FC(F)(F)C(F)(F)C(F)(F)C(F)(F)C(F)(F)C(F)(F)C(F)(F)C(F)(F)C(F)(F)F` [eicosafluorononane] + CCCCCCCC here?
The molar volume was 0.0003069 ± 3e-06 m3/mol.

What about the molar volume (m1 = 0.0565) of the same molecule?
The molar volume was 0.000307 ± 3e-06 m3/mol.

And the molar volume (m1 = 0.0714)?
The molar volume was 0.0003073 ± 3e-06 m3/mol.

And the molar volume (m1 = 0.0832)?
The molar volume was 0.0003067 ± 3e-06 m3/mol.

What about the molar volume (m1 = 0.1105) of the same molecule?
Its molar volume is 0.000307 ± 3e-06 m3/mol.

What about the molar volume (m1 = 0.1219) of the same molecule?
The molar volume was 0.0003062 ± 3e-06 m3/mol.

What about the molar volume (m1 = 0.1488) of the same molecule?
Its molar volume is 0.0003058 ± 3e-06 m3/mol.

And the molar volume (m1 = 0.1513)?
Its molar volume is 0.0003065 ± 3e-06 m3/mol.

Which molar volume (m1 = 0.0362) does the source give for `FC(F)(F)C(F)(F)C(F)(F)C(F)(F)C(F)(F)C(F)(F)C(F)(F)C(F)(F)F` [octadecafluorooctane] + CCCCCCCC here?
The molar volume was 0.0002822 ± 3e-06 m3/mol.

And the molar volume (m1 = 0.0617)?
The molar volume was 0.0002816 ± 3e-06 m3/mol.

And the molar volume (m1 = 0.0923)?
Its molar volume is 0.0002798 ± 3e-06 m3/mol.

What about the molar volume (m1 = 0.1157) of the same molecule?
Its molar volume is 0.0002803 ± 3e-06 m3/mol.

And the molar volume (m1 = 0.1445)?
The molar volume was 0.0002792 ± 3e-06 m3/mol.

What about the molar volume (m1 = 0.1585) of the same molecule?
Its molar volume is 0.0002786 ± 3e-06 m3/mol.

What about the molar volume (m1 = 0.1808) of the same molecule?
The molar volume was 0.0002784 ± 3e-06 m3/mol.

What about the molar volume (m1 = 0.2115) of the same molecule?
Its molar volume is 0.0002788 ± 3e-06 m3/mol.

For `FC(F)(F)C(F)(F)C(F)(F)C(F)(F)C(F)(F)C(F)(F)F` [perfluorohexane] + CCCCCCCC, which molar volume (m1 = 0.088) is on record?
The molar volume was 0.0002294 ± 3e-06 m3/mol.

And the molar volume (m1 = 0.1035)?
Its molar volume is 0.0002312 ± 3e-06 m3/mol.

What about the molar volume (m1 = 0.131) of the same molecule?
Its molar volume is 0.0002293 ± 3e-06 m3/mol.

And the molar volume (m1 = 0.1624)?
Its molar volume is 0.0002278 ± 3e-06 m3/mol.

What about the molar volume (m1 = 0.1833) of the same molecule?
The molar volume was 0.0002292 ± 3e-06 m3/mol.

And the molar volume (m1 = 0.2156)?
The molar volume was 0.0002299 ± 3e-06 m3/mol.

And the molar volume (m1 = 0.2594)?
Its molar volume is 0.0002276 ± 3e-06 m3/mol.

What about the molar volume (m1 = 0.268) of the same molecule?
Its molar volume is 0.0002308 ± 3e-06 m3/mol.

What about the molar volume (m1 = 0.304) of the same molecule?
Its molar volume is 0.0002288 ± 3e-06 m3/mol.

And the molar volume (m1 = 0.3424)?
The molar volume was 0.0002285 ± 3e-06 m3/mol.

What about the molar volume (m1 = 0.3621) of the same molecule?
Its molar volume is 0.00023 ± 3e-06 m3/mol.

And the molar volume (m1 = 0.4051)?
The molar volume was 0.0002288 ± 3e-06 m3/mol.
